Assay results taken from patent US20220168298A1, “CANCER TREATMENT” (Janssen Pharmaceutica NV, priority 2019, published 2022).
Like-named read-outs stand apart in the source and are kept apart here.

[1] = Regimen 2 6 mg continuous (n = 78)

Protocol: Study treatment is administered on 28-day cycles. Prior to interim analysis 1, there were 2 treatment regimens.
Safety was assessed continuously by the investigator and based on medical review of AE reports and the results of vital sign measurements, physical examinations, clinical laboratory tests, ECOG performance status, and other safety evaluations.
Safety data are presented for the safety population (N=207, enrolled between May 7, 2015, and Dec. 5, 2017), defined as patients who received at least 1 dose of study treatment.
An analysis was done on 99 NCT02365597 patients who received the dose regimen of 8 mg/day continuous (pharmacodynamically guided uptitrated to 9 mg/d per serum phosphate as described herein, Regimen 3) to explore efficacy among high-risk patients. […] High-risk patients are defined as patients meeting one or more of the following criteria: • age ≥75 years; • ECOG PS 2 (Eastern Cooperative Oncology Group Performance Status 2; Oken M, Creech R, Tormey D, et al. Toxicity and response criteria of the Eastern Cooperative Oncology Group. Am J Clin Oncol. 1982; 5:649-655) • hemoglobin <10 g/dL; • visceral metastases of the liver, lung and/or bone; • 2 or 3 Bellmunt risk factors (Bellmunt J, Choueiri T K, Fougeray R, et al: Prognostic factors in patients with advanced transitional cell carcinoma of the urothelial tract experiencing treatment failure with platinum-containing regimens.
Final analysis for NCT02365597 was conducted, per protocol 12 months after the last subject was enrolled.

Question: With `COc1cc(OC)cc(N(CCNC(C)C)c2ccc3ncc(-c4cnn(C)c4)nc3c2)c1` [erdafitinib, N-(3,5-dimethoxyphenyl)-N′-(1-methylethyl)-N-[3-(1-methyl-1H-pyrazol-4-yl)quinoxalin-6-yl]ethane-1,2-diamine] as the compound, how does the “TRAE Nail dystrophy, Grade ≥3” value [1] read?
Answer: 0 n

Question: And the “TRAE Palmar-plantar erythrodysaesthesia syndrome, Grade ≥3” value [1]?
Answer: 0 n

Question: And the “TRAE Paronychia, Grade ≥3” value [1]?
Answer: 0 n

Question: And the treatment-related deaths (across all dose regimens (N = 207))?
Answer: no treatment-related deaths

Question: And the treatment-related deaths (final analysis, 101 patients)?
Answer: no treatment-related deaths

Question: What about the “CSR events resolved on the data cut-off date” value (human, in vivo) of the same compound?
Answer: 63%

Question: What about the “CSR events resolved on the data cut-off date, n/N” value (human, in vivo) of the same compound?
Answer: 17/27

Question: What about the “CSR events that were Grade 1 or 2” value (human, in vivo) of the same compound?
Answer: 85%

Question: What about the “CSR events that were Grade 1 or 2, n/N” value (human, in vivo) of the same compound?
Answer: 23/27

Question: And the “Treatment discontinuation rates for adverse events” value (human, in vivo)?
Answer: approximately 20%

Question: What about the “dosage discontinued for CSR” value (human, in vivo) of the same compound?
Answer: 3 patients

Question: And the “dosage interrupted for CSR” value (human, in vivo)?
Answer: 8 patients

Question: And the “dosage reduced for CSR” value (human, in vivo)?
Answer: 13 patients

Question: And the “grade 3/4 serious adverse events proportions by subgroup, range” value (human, in vivo)?
Answer: 26.7-36.4%

Question: What about the “ongoing CSR events that were Grade 1” value (human, in vivo) of the same compound?
Answer: 60%

Question: And the “ongoing CSR events that were Grade 1, n/N” value (human, in vivo)?
Answer: 6/10

Question: What about the patients reporting retinopathy (human, in vivo) of the same compound?
Answer: 2 patients

Question: And the “patients reporting retinopathy, grade 2” value (human, in vivo)?
Answer: 1 n

Question: What about the “patients reporting retinopathy, grade 3” value (human, in vivo) of the same compound?
Answer: 1 n

Question: And the “patients with Central serous retinopathy (CSR) events” value (human, in vivo)?
Answer: 27%

Question: What about the “patients with Central serous retinopathy (CSR) events, n/N” value (human, in vivo) of the same compound?
Answer: 27/101
